Measurements from patent US10239957B2, “Peptide containing conjugates for dual molecular delivery of oligonucleotides” (Merck Sharp & Dohme Corp., priority 2013, dated 2019).
Where no end group is shown, it is not given here. [ ]: non-standard residue; d: D form. TGN = not defined here

Test system: CTNNB1
Experiment: In vitro DMD assay: mRNA silencing enhancement by peptide conjugates after siRNA-IV treatment
Type: cell-based
Settings: primary mouse hepatocytes, siRNA-IV 125 nM baseline
Procedure: Cryopreserved primary Mouse hepatocytes (Bioreclamation, LLC) were placed into Collagen Type I coated 96-well plates at 25,000 cells per well in serum-containing InVitroGRO CP media (Bioreclamation, LLC) and allowed 5 hours to attach. Media was replaced with InVitroGRO HI media and cells were treated with siRNA-IV at 125 nM [siRNA] for 1 hour. Media was replaced with InVitroGRO HI media and cells were treated for approximately 16 hours with experimental Peptide conjugates at various concentrations to establish a dose-response curve. Peptide conjugates were washed out after 16 hours with InVitroGRO HI media and cells allowed to incubate for an additional 24 hours. Cells were then lysed and mRNA expression of the siRNA target was measured by RT-qPCR (Applied Biosystems Taqman reagents). mRNA silencing activity of each Peptide conjugate was expressed as an enhancement above the baseline activity of 125 nM siRNA-IV alone with respect to the untreated cells and all siRNA target Ct values were normalized to PPIB mRNA for each well (dddCt) and summarized.
The structure of TGN-S-S-peptide is shown below and the activity data is listed in Table 5 (siRNA-IV concentration was kept at […]).

## TGN-S-S-SEQ ID NO: 1633(D) ([dC]G[dL][dF]G[dE][dI][dH][dH][dL][dI][dH][dH]G[dL][dE][dN][dL][dI][dD][dW][dW][dN]G; not fully specified (residue 1); also: TGN attached via disulfide; listed as Homo sapiens)
Targeted peptide dose 125 nM
  In vitro dddCt (vs. baseline SCE dose): −0.39
Targeted peptide dose 625 nM
  In vitro dddCt (vs. baseline SCE dose): −0.57
Targeted peptide dose 3125 nM
  In vitro dddCt (vs. baseline SCE dose): −0.37
Targeted peptide dose 15625 nM
  In vitro dddCt (vs. baseline SCE dose): −0.69

## TGN-S-S-SEQ ID NO: 1654 (D)) ([dC]G[dL][dL][dE][dE][dI][dE][dE][dL][dL][dE][dE]G[dL][dE][dN][dL][dI][dD][dW]G[dN][dS]; not fully specified (residue 1); also: TGN attached via disulfide; listed as Homo sapiens)
Targeted peptide dose 125 nM
  In vitro dddCt (vs. baseline SCE dose): −1.05

## TGN-S-S-SEQ ID NO: 1717 (L) (C(TGN)FLGALFHALSHLLENLIDWWNG; reading uncertain; also: TGN disulfide conjugate at Cys1; listed as Homo sapiens)
Targeted peptide dose 25 nM
  In vitro dddCt (vs. baseline SCE dose): 0.61
Targeted peptide dose 625 nM
  In vitro dddCt (vs. baseline SCE dose): 0.37
Targeted peptide dose 3125 nM
  In vitro dddCt (vs. baseline SCE dose): 0.15

## TGN-S-S-SEQ ID NO: 1738 (D) (G[dL][dF]G[dE][dI][dE][dE][dL][dI][dE][dE]G[dL][dE][dN][dL][dI][dD][dW]G[dN]G[dL][dA][dE][dL][dA][dE][dA][dL][dE][dA][dL][dA][dA]GG[dS][dC]; not fully specified (residue 40); also: disulfide to TGN peptide via Cys40; listed as Homo sapiens)
Targeted peptide dose 8 nM
  In vitro dddCt (vs. baseline SCE dose): −0.24
Targeted peptide dose 40 nM
  In vitro dddCt (vs. baseline SCE dose): −0.67
Targeted peptide dose 200 nM
  In vitro dddCt (vs. baseline SCE dose): −1.57
Targeted peptide dose 1000 nM
  In vitro dddCt (vs. baseline SCE dose): −1.69
Targeted peptide dose 5000 nM
  In vitro dddCt (vs. baseline SCE dose): −2.19

## TGN-S-S-SEQ ID NO: 1740(D) (G[dL][dF][dE][dA][dI][dE]G[dF][dI][dE][dN]G[dW][dE]G[dL][dA][dE][dL][dA][dE][dA][dL][dE][dA][dL][dA][dA]GG[dS][dC]; not fully specified (residue 33); also: disulfide to TGN peptide via Cys33; listed as Homo sapiens)
Targeted peptide dose 8 nM
  In vitro dddCt (vs. baseline SCE dose): −0.19
Targeted peptide dose 40 nM
  In vitro dddCt (vs. baseline SCE dose): −0.46
Targeted peptide dose 200 nM
  In vitro dddCt (vs. baseline SCE dose): −1.29
Targeted peptide dose 1000 nM
  In vitro dddCt (vs. baseline SCE dose): −2.3
Targeted peptide dose 5000 nM
  In vitro dddCt (vs. baseline SCE dose): −2.98

## TGN-S-S-SEQ ID NO: 1741 (L) (GLFGALAEALAEALAEHLAEALAEALEALAAGGSC(TGN); reading uncertain; also: TGN linked to Cys via disulfide, TGN not defined; listed as Homo sapiens)
Targeted peptide dose 8 nM
  In vitro dddCt (vs. baseline SCE dose): 0.03
Targeted peptide dose 24 nM
  In vitro dddCt (vs. baseline SCE dose): 0
Targeted peptide dose 40 nM
  In vitro dddCt (vs. baseline SCE dose): −0.11
Targeted peptide dose 120 nM
  In vitro dddCt (vs. baseline SCE dose): 0.02
Targeted peptide dose 200 nM
  In vitro dddCt (vs. baseline SCE dose): −0.25
Targeted peptide dose 600 nM
  In vitro dddCt (vs. baseline SCE dose): −0.08
Targeted peptide dose 1000 nM
  In vitro dddCt (vs. baseline SCE dose): 0.98
Targeted peptide dose 3000 nM
  In vitro dddCt (vs. baseline SCE dose): −0.4
Targeted peptide dose 5000 nM
  In vitro dddCt (vs. baseline SCE dose): −0.58
Targeted peptide dose 15000 nM
  In vitro dddCt (vs. baseline SCE dose): −0.25

## TGN-S-S-SEQ ID NO: 1747 (D) ([dC]G[dL][dF]G[dE][dI][dE][dE][dL][dL][dE][dE]G[dL][dE][dN][dL][dI][dD][dW]G[dN]G; not fully specified (residue 1); also: disulfide to TGN peptide via Cys1; listed as Homo sapiens)
Targeted peptide dose 8 nM
  In vitro dddCt (vs. baseline SCE dose): −0.23
Targeted peptide dose 40 nM
  In vitro dddCt (vs. baseline SCE dose): −0.7
Targeted peptide dose 200 nM
  In vitro dddCt (vs. baseline SCE dose): −1.53
Targeted peptide dose 1000 nM
  In vitro dddCt (vs. baseline SCE dose): −2.08
Targeted peptide dose 5000 nM
  In vitro dddCt (vs. baseline SCE dose): −1.98

## TGN-S-S-SEQ ID NO: 1748 (D) ([dC]G[dL][dF]G[dE][dI][dE][dE][dL][dI][dE][dE][dA][dL][dE][dN][dL][dI][dD][dW]G[dN]G; not fully specified (residue 1); also: disulfide to TGN peptide via Cys1; listed as Homo sapiens)
Targeted peptide dose 8 nM
  In vitro dddCt (vs. baseline SCE dose): −0.2
Targeted peptide dose 40 nM
  In vitro dddCt (vs. baseline SCE dose): −0.5
Targeted peptide dose 200 nM
  In vitro dddCt (vs. baseline SCE dose): −1.38
Targeted peptide dose 1000 nM
  In vitro dddCt (vs. baseline SCE dose): −1.92
Targeted peptide dose 5000 nM
  In vitro dddCt (vs. baseline SCE dose): −2.01

## TGN-S-S-SEQ ID NO: 1749 (D) ([dC]G[dL][dF]G[dE][dI][dE][dE][dL][dI][dE][dE]G[dF][dE][dN][dL][dI][dD][dW]G[dN]G; not fully specified (residue 1); also: disulfide to TGN peptide via Cys1; listed as Homo sapiens)
Targeted peptide dose 8 nM
  In vitro dddCt (vs. baseline SCE dose): 0.02
Targeted peptide dose 40 nM
  In vitro dddCt (vs. baseline SCE dose): −0.04
Targeted peptide dose 200 nM
  In vitro dddCt (vs. baseline SCE dose): −0.26
Targeted peptide dose 1000 nM
  In vitro dddCt (vs. baseline SCE dose): −0.22
Targeted peptide dose 5000 nM
  In vitro dddCt (vs. baseline SCE dose): −0.11

## TGN-S-S-SEQ ID NO: 1751 (D) ([dC]G[dL][dF]G[dE][dI][dE][dE][dL][dI][dE][dE]G[dW][dE][dN][dL][dI][dD][dW]G[dN]G; not fully specified (residue 1); also: disulfide to TGN peptide via Cys1; listed as Homo sapiens)
Targeted peptide dose 8 nM
  In vitro dddCt (vs. baseline SCE dose): −0.1
Targeted peptide dose 40 nM
  In vitro dddCt (vs. baseline SCE dose): −0.12
Targeted peptide dose 200 nM
  In vitro dddCt (vs. baseline SCE dose): 0.09
Targeted peptide dose 1000 nM
  In vitro dddCt (vs. baseline SCE dose): −0.05
Targeted peptide dose 5000 nM
  In vitro dddCt (vs. baseline SCE dose): 0.01

## TGN-S-S-SEQ ID NO: 1752 (D) ([dC]G[dL][dF]G[dE][dI][dE][dE][dW][dI][dE][dE]G[dL][dE][dN][dL][dI][dD][dW]G[dN]G; not fully specified (residue 1); also: disulfide to TGN peptide via Cys1; listed as Homo sapiens)
Targeted peptide dose 8 nM
  In vitro dddCt (vs. baseline SCE dose): −0.25
Targeted peptide dose 40 nM
  In vitro dddCt (vs. baseline SCE dose): −0.48
Targeted peptide dose 200 nM
  In vitro dddCt (vs. baseline SCE dose): −0.89
Targeted peptide dose 1000 nM
  In vitro dddCt (vs. baseline SCE dose): −0.95
Targeted peptide dose 5000 nM
  In vitro dddCt (vs. baseline SCE dose): −1.02

## TGN-S-S-SEQ ID NO: 1753 (D) ([dC]G[dL][dF]G[dE][dI][dE][dE][dF][dI][dE][dE]G[dL][dE][dN][dL][dI][dD][dW]G[dN]G; not fully specified (residue 1); also: disulfide to TGN peptide via Cys1; listed as Homo sapiens)
Targeted peptide dose 8 nM
  In vitro dddCt (vs. baseline SCE dose): 0.15
Targeted peptide dose 40 nM
  In vitro dddCt (vs. baseline SCE dose): 0.05
Targeted peptide dose 200 nM
  In vitro dddCt (vs. baseline SCE dose): −0.2
Targeted peptide dose 1000 nM
  In vitro dddCt (vs. baseline SCE dose): −0.18
Targeted peptide dose 5000 nM
  In vitro dddCt (vs. baseline SCE dose): −0.16

## TGN-S-S-SEQ ID NO: 1755 (D) ([dC]G[dL][dF]G[dE][dI][dE][dE][dL][dF][dE][dE]G[dL][dE][dN][dL][dI][dD][dW]G[dN]G; not fully specified (residue 1); also: disulfide to TGN peptide via Cys1; listed as Homo sapiens)
Targeted peptide dose 8 nM
  In vitro dddCt (vs. baseline SCE dose): −0.01
Targeted peptide dose 40 nM
  In vitro dddCt (vs. baseline SCE dose): −0.24
Targeted peptide dose 200 nM
  In vitro dddCt (vs. baseline SCE dose): −0.38
Targeted peptide dose 1000 nM
  In vitro dddCt (vs. baseline SCE dose): −0.49
Targeted peptide dose 5000 nM
  In vitro dddCt (vs. baseline SCE dose): −0.24

## TGN-S-S-SEQ ID NO: 1758 (D) ([dC]G[dL][dF]G[dE][dI][dE][dE][dL][dI][dE][dE]G[dL][dE][dE][dL][dI][dD][dW]G[dN]G; not fully specified (residue 1); also: disulfide to TGN peptide via Cys1; listed as Homo sapiens)
Targeted peptide dose 8 nM
  In vitro dddCt (vs. baseline SCE dose): 0.04
Targeted peptide dose 40 nM
  In vitro dddCt (vs. baseline SCE dose): −0.02
Targeted peptide dose 200 nM
  In vitro dddCt (vs. baseline SCE dose): −0.38
Targeted peptide dose 1000 nM
  In vitro dddCt (vs. baseline SCE dose): −0.77
Targeted peptide dose 5000 nM
  In vitro dddCt (vs. baseline SCE dose): −0.64

## TGN-S-S-SEQ ID NO: 1759 (D) ([dC]G[dL][dF]G[dE][dI][dE][dE][dL][dI][dE][dE]G[dL][dE][dS][dL][dI][dD][dW]G[dN]G; not fully specified (residue 1); also: disulfide to TGN peptide via Cys1; listed as Homo sapiens)
Targeted peptide dose 8 nM
  In vitro dddCt (vs. baseline SCE dose): −0.15
Targeted peptide dose 40 nM
  In vitro dddCt (vs. baseline SCE dose): −0.87
Targeted peptide dose 200 nM
  In vitro dddCt (vs. baseline SCE dose): −1.65
Targeted peptide dose 1000 nM
  In vitro dddCt (vs. baseline SCE dose): −1.66

## TGN-S-S-SEQ ID NO: 1760 (D) ([dC]G[dL][dF]G[dE][dI][dE][dE][dL][dI][dE][dE]G[dL][dE][dQ][dL][dI][dD][dW]G[dN]G; not fully specified (residue 1); also: disulfide to TGN peptide via Cys1; listed as Homo sapiens)
Targeted peptide dose 8 nM
  In vitro dddCt (vs. baseline SCE dose): −0.09
Targeted peptide dose 40 nM
  In vitro dddCt (vs. baseline SCE dose): −1.01
Targeted peptide dose 200 nM
  In vitro dddCt (vs. baseline SCE dose): −1.6
Targeted peptide dose 1000 nM
  In vitro dddCt (vs. baseline SCE dose): −1.8
Targeted peptide dose 5000 nM
  In vitro dddCt (vs. baseline SCE dose): −1.46
